{"source": "patent US20220289698A1", "about": "“INHIBITORS OF HUMAN ATGL” (Karl-Franzens-Universität Graz, priority 2019, published 2022)", "assay_type_in_all_cases": "biochemical", "key": {"hHSL": {"biological_target": "T1, hHSL (Homo sapiens, UniProt Q05469)", "T1 construct": "made in house; host or cells: Expi cells (lysate)", "T1 sequence (Q05469 1-1076)": "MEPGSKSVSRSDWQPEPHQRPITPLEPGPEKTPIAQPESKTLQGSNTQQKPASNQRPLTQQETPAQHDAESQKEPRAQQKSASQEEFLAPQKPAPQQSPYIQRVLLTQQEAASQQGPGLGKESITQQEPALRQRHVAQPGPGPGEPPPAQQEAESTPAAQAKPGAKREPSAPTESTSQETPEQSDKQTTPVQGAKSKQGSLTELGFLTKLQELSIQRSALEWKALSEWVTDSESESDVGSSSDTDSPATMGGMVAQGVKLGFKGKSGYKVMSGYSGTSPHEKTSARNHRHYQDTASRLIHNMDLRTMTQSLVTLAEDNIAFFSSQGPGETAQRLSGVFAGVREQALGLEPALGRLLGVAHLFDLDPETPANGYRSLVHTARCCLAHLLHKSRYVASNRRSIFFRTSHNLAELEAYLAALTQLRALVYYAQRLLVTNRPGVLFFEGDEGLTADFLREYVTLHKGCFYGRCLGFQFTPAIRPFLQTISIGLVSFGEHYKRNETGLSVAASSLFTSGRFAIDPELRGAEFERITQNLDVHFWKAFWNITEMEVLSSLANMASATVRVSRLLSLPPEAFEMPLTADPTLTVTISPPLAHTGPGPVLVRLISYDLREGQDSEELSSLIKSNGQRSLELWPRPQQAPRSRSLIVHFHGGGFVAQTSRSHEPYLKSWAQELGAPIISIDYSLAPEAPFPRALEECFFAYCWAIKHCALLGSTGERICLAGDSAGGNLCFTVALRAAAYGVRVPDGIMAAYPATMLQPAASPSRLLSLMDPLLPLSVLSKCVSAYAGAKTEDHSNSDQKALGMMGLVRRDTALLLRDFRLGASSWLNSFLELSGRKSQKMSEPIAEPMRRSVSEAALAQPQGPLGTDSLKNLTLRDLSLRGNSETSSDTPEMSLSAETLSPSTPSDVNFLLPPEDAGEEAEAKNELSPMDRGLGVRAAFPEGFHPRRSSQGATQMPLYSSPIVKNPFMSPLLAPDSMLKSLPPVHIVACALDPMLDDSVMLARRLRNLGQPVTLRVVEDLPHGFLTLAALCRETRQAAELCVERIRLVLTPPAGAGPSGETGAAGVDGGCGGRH", "assay": "hHSL off-target inhibition", "details": "read-out: hHSL off-target inhibition [% inhibition at 100 μM]", "method": "Expi lysates expressing hHSL were preincubated with 100 μM Inhibitors for 30 min and incubated with 1 mM pNV substrate for 30 min. Samples measured in triplicates."}, "hPNPLA6": {"biological_target": "T2, hPNPLA6 (Homo sapiens, UniProt Q8IY17)", "T2 construct": "made in house; host or cells: Expi cells (lysate)", "T2 sequence (Q8IY17 1-1375)": "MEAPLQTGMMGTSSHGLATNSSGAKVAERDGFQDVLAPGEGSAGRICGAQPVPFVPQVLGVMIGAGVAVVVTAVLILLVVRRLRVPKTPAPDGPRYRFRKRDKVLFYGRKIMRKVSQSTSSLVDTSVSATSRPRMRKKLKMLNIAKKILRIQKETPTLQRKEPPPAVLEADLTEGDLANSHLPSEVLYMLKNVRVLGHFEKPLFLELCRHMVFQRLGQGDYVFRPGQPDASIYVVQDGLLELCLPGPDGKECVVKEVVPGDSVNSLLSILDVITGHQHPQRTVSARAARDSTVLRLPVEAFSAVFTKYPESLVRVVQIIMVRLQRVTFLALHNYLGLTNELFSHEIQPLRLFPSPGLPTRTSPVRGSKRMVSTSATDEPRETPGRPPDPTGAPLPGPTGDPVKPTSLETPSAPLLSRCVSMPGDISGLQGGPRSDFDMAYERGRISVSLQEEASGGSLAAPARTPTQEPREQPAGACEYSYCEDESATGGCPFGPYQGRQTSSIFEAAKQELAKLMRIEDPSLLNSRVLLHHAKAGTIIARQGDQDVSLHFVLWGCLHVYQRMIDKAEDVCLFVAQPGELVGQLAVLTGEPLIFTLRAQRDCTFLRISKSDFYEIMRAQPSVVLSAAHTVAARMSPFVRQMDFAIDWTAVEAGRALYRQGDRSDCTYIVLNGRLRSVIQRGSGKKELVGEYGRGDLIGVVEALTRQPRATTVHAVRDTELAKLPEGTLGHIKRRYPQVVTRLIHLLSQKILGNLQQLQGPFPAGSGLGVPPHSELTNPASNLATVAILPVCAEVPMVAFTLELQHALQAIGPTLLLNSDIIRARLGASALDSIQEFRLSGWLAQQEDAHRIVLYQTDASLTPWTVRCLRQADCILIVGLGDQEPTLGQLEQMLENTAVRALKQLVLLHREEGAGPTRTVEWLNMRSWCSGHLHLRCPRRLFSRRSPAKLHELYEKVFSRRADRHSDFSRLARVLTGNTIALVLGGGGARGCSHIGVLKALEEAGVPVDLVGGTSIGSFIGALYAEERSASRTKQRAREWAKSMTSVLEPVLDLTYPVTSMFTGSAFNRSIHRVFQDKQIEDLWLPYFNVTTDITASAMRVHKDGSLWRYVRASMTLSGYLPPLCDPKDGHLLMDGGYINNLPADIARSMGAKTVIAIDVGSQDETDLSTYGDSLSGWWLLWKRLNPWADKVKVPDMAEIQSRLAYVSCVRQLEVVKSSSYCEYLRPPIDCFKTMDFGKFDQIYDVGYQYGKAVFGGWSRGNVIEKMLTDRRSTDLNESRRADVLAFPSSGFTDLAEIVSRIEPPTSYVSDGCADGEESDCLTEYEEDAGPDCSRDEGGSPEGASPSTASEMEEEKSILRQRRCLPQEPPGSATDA", "assay": "hPNPLA6 off-target inhibition", "details": "read-out: hPNPLA6 off-target inhibition [% inhibition at 100 μM]", "method": "Expi lysates expressing hPNPLA6 were treated with 100 μM Inhibitors and incubated with 1 mM C8 monoacylglycerol substrate (containing 5 mM CHAPS, 50 mM NaPh buffer ph7.4, 0.15 M NaCl) for 40 min, Glycerol release was determined via Free glycerol reagent (Sigma Aldrich). Samples measured in triplicates."}, "rhesus monkey ATGL": {"system": "rhesus monkey ATGL", "assay": "Rhesus monkey ATGL inhibition, Expi lysates + CGI-58", "method": "Lysates from Expi cells overexpressing ATGL from rhesus monkeys (Macaca mulatta) were incubated with recombinant purified ATGL co-activator CGI-58 and ATGL inhibitors at 50 μM. Subsequently, substrate containing radiolabeled triolein was added and liberated FA were extracted and quantified by liquid scintillation. Inhibitors were dissolved in DMSO which was used as control. Samples were measured in triplicates."}}}
{"smiles": "CCOc1ccc(-c2cc(OC)cc(C(=O)OC(C)C)n2)cc1", "note": "[Example 35]", "values": [{"measurement": "inhibition at 100 µM", "setting": "hHSL", "value": 0, "unit": "%"}]}
{"smiles": "CCOc1ccc(-c2nc(C(=O)OCc3cccs3)cs2)cc1", "note": "[Example 152, Thiophen-2-ylmethyl 2-(4-ethoxyphenyl)thiazole-4-carboxylate]", "values": [{"measurement": "inhibition at 100 µM", "setting": "hPNPLA6", "value": 0, "unit": "%"}, {"measurement": "rhesus monkey ATGL inhibition [% inhibition at 50 μM]", "setting": "rhesus monkey ATGL", "value": 10, "unit": "%"}, {"measurement": "inhibition at 100 µM", "setting": "hHSL", "value": 25, "unit": "%"}]}
{"smiles": "CCOc1ccc(-c2cccc(C(=O)OCc3cccs3)n2)cc1", "note": "[Example 189, Thiophen-2-ylmethyl 6-(4-ethoxyphenyl)picolinate]", "values": [{"measurement": "inhibition at 100 µM", "setting": "hPNPLA6", "value": 0, "unit": "%"}, {"measurement": "rhesus monkey ATGL inhibition [% inhibition at 50 μM]", "setting": "rhesus monkey ATGL", "value": 70, "unit": "%"}, {"measurement": "inhibition at 100 µM", "setting": "hHSL", "value": 0, "unit": "%"}]}
{"smiles": "CCOc1ccc(-c2cccc(C(=O)OCc3ccco3)n2)cc1", "note": "[Example 190, Furan-2-ylmethyl 6-(4-ethoxyphenyl)picolinate]", "values": [{"measurement": "inhibition at 100 µM", "setting": "hPNPLA6", "value": 0, "unit": "%"}, {"measurement": "rhesus monkey ATGL inhibition [% inhibition at 50 μM]", "setting": "rhesus monkey ATGL", "value": 70, "unit": "%"}, {"measurement": "inhibition at 100 µM", "setting": "hHSL", "value": 0, "unit": "%"}]}
{"smiles": "COc1cc(C(=O)OC(C)C)nc(-c2ccc(OC(C)C)cc2)c1", "note": "[Example 201, Isopropyl 6-(4-isopropoxyphenyl)-4-methoxypicolinate]", "values": [{"measurement": "inhibition at 100 µM", "setting": "hPNPLA6", "value": 0, "unit": "%"}, {"measurement": "rhesus monkey ATGL inhibition [% inhibition at 50 μM]", "setting": "rhesus monkey ATGL", "value": 95, "unit": "%"}, {"measurement": "inhibition at 100 µM", "setting": "hHSL", "value": 0, "unit": "%"}]}
{"smiles": "CC#CCOC(=O)c1csc(-c2ccc(OCC)cc2)n1", "note": "[Example 209, But-2-yn-1-yl 2-(4-ethoxyphenyl)thiazole-4-carboxylate]", "values": [{"measurement": "inhibition at 100 µM", "setting": "hPNPLA6", "value": 0, "unit": "%"}, {"measurement": "rhesus monkey ATGL inhibition [% inhibition at 50 μM]", "setting": "rhesus monkey ATGL", "value": 70, "unit": "%"}, {"measurement": "inhibition at 100 µM", "setting": "hHSL", "value": 40, "unit": "%"}]}
{"smiles": "C#C[C@H](C)OC(=O)c1csc(-c2ccc(OCC)cc2)n1", "note": "[Example 210, (S)-But-3-yn-2-yl 2-(4-ethoxyphenyl)thiazole-4-carboxylate]", "values": [{"measurement": "inhibition at 100 µM", "setting": "hPNPLA6", "value": 0, "unit": "%"}, {"measurement": "rhesus monkey ATGL inhibition [% inhibition at 50 μM]", "setting": "rhesus monkey ATGL", "value": 90, "unit": "%"}, {"measurement": "inhibition at 100 µM", "setting": "hHSL", "value": 0, "unit": "%"}]}
{"smiles": "C#C[C@@H](C)OC(=O)c1csc(-c2ccc(OCC)cc2)n1", "note": "[Example 211, (R)-But-3-yn-2-yl 2-(4-ethoxyphenyl)thiazole-4-carboxylate]", "values": [{"measurement": "inhibition at 100 µM", "setting": "hPNPLA6", "value": 0, "unit": "%"}, {"measurement": "rhesus monkey ATGL inhibition [% inhibition at 50 μM]", "setting": "rhesus monkey ATGL", "value": 100, "unit": "%"}, {"measurement": "inhibition at 100 µM", "setting": "hHSL", "value": 40, "unit": "%"}]}
{"smiles": "CCCCOC(=O)c1csc(-c2ccc(OCC)cc2)n1", "note": "[Example 212, Butyl 2-(4-ethoxyphenyl)thiazole-4-carboxylate]", "values": [{"measurement": "inhibition at 100 µM", "setting": "hPNPLA6", "value": 0, "unit": "%"}, {"measurement": "rhesus monkey ATGL inhibition [% inhibition at 50 μM]", "setting": "rhesus monkey ATGL", "value": 70, "unit": "%"}, {"measurement": "inhibition at 100 µM", "setting": "hHSL", "value": 0, "unit": "%"}]}
{"smiles": "CCOc1ccc(-c2nc(C(=O)OCc3ccsc3)cs2)cc1", "note": "[Example 215, Thiophen-3-ylmethyl 2-(4-ethoxyphenyl)thiazole-4-carboxylate]", "values": [{"measurement": "inhibition at 100 µM", "setting": "hPNPLA6", "value": 0, "unit": "%"}, {"measurement": "rhesus monkey ATGL inhibition [% inhibition at 50 μM]", "setting": "rhesus monkey ATGL", "value": 70, "unit": "%"}, {"measurement": "inhibition at 100 µM", "setting": "hHSL", "value": 30, "unit": "%"}]}
{"smiles": "CCOc1ccc(-c2nc(C(=O)OCc3ccoc3)cs2)cc1", "note": "[Example 216, Furan-3-ylmethyl 2-(4-ethoxyphenyl)thiazole-4-carboxylate]", "values": [{"measurement": "inhibition at 100 µM", "setting": "hPNPLA6", "value": 0, "unit": "%"}, {"measurement": "rhesus monkey ATGL inhibition [% inhibition at 50 μM]", "setting": "rhesus monkey ATGL", "value": 70, "unit": "%"}, {"measurement": "inhibition at 100 µM", "setting": "hHSL", "value": 30, "unit": "%"}]}
{"smiles": "CCOc1ccc(-c2nc(C(=O)OCc3ccc(Cl)s3)cs2)cc1", "note": "[Example 223, (5-Chlorothiophen-2-yl)methyl 2-(4-ethoxyphenyl)thiazole-4-carboxylate]", "values": [{"measurement": "inhibition at 100 µM", "setting": "hPNPLA6", "value": 0, "unit": "%"}, {"measurement": "rhesus monkey ATGL inhibition [% inhibition at 50 μM]", "setting": "rhesus monkey ATGL", "value": 65, "unit": "%"}, {"measurement": "inhibition at 100 µM", "setting": "hHSL", "value": 40, "unit": "%"}]}
{"smiles": "CCOc1ccc(-c2nc(C(=O)OCc3ccc(Br)s3)cs2)cc1", "note": "[Example 224, (5-Bromothiophen-2-yl)methyl 2-(4-ethoxyphenyl)thiazole-4-carboxylate]", "values": [{"measurement": "inhibition at 100 µM", "setting": "hPNPLA6", "value": 0, "unit": "%"}, {"measurement": "rhesus monkey ATGL inhibition [% inhibition at 50 μM]", "setting": "rhesus monkey ATGL", "value": 70, "unit": "%"}, {"measurement": "inhibition at 100 µM", "setting": "hHSL", "value": 95, "unit": "%"}]}
